One assay deals with pancreatic cancer cells. Nature of the assay: Migration/invasion of pancreatic cancer cells. The assay is classed as cell-based, human. On the procedure: (§1) The cancer cell migration assay was performed in 96-wll-MultiScreen-MIC plates (Millipore) with 8 μm-pore-sized polycarbonate membrane. Briefly, highly-metastatic human lung adenocarcinoma CL1-5 cells were placed onto the upper chamber (2×10^4 cells/well) with tested compounds in complete medium (RPMI 1640 medium containing 1% FBS) and only medium placed onto the lower chamber. The chamber culture was incubated for 24 h at 37° C. and, then, the non-migrated cells were washed off the upper surface of the membrane. The migrated cells on the bottom side were dissociated with Cell Detachment Buffer (Chemicon, Inc.), lysed and stained for nucleic acids with CyQuant GR dye (Molecular Probes). The signal intensities were measured using a fluorescence reader (VICTORTIM 1420 Multilabel Counter, Wallac) at excitation wavelength of 485 nm and emission wavelength of 535 nm (1 sec). The result was presented as the average values from three independent experiments performed in duplicates.
(§2) Similarly, Compounds 1 and 118 were tested against human A2058 melanoma cells and pancreatic cancer cells.

The test system of assay [1] is human A2058 melanoma cells. Nature of the assay: Migration/invasion of A2058 melanoma cells. In kind it is cell-based. On the procedure:
as §1, §2

For the next assay, the system named is A2058 melanoma cells. The assay can be described thus: In vivo assay, mice inoculated with A2058 melanoma cells. Set-up: species or system BALB/cAnN-Foxn1nu/CrlNarl female mice. On the procedure: BALB/cAnN-Foxn1nu/CrlNarl female mice were inoculated with A2058 melanoma cells. On day 7, 12 mice were treated i.v. with Compound 1 in DMSO (mg/kg) and 8 mice were treated with DMSO as control. The treatment was continued for 72 days. The mice were sacrificed and their lungs were weighted.

Turning to `O=C(NCCC1CCCCC1)C(O)[C@H](CCc1ccccc1)NC(=O)[C@H](CC1CCCCC1)NC(=O)N1CCOCC1` (stereo partly shown) [Compound 118], the “inhibition of migratory and invasice abilities of pancreatic cancer cells” value with pancreatic cancer cells is “effective inhibited migratory and invasice abilities”.

With `CCOC(=O)CNC(=O)C(=O)[C@H](COCc1ccccc1)NC(=O)[C@H](CC(C)C)NC(=O)c1cccc2c1C(=O)c1ccccc1-2` (stereo in doubt) [Compound 1, Ethyl 2-(4-(benzyloxy)-3-[((2R)-4-methyl-2-[(9-oxo-9H-1-fluorenyl)carbonyl]aminopropanoyl)amino]-2-oxobutanoylamino)acetate], in assay [1], the “inhibition of migratory and invasice abilities of A2058 melanoma cells” value was “effectively inhibited migratory and invasice abilities”. In the assay with A2058 melanoma cells (A2058 inoculated mice, i.v. in DMSO from day 7, treatment continued for 72 days, DMSO control 0.671 g), this compound gave a lung weights of 0.471 g. Besides, the “inhibition of cancer growth in A2058 inoculated mice” value in the assay on A2058 melanoma cells (i.v. in DMSO, 72 days) is given as “effectively inhibited cancer growth”.
